According to ChEMBL document CHEMBL1156363, “Cytotoxic cyclic norterpene peroxides from a Red Sea sponge Diacarnus erythraenus” (J Nat Prod, 2001):

What was measured:
Assay type in all cases: functional, cell-based
P388 = experiment: Cytotoxicity against mouse P388 cells
A549 = experiment: Cytotoxicity against human A549 cells
HT-29 = experiment: Cytotoxicity against human HT-29 cells

Measured: IC50

C=C(CCCC(C)(C)O)C(=O)CC[C@@]1(C)CC[C@@H]([C@H](C)C(=O)OC)OO1 [AIKUPIKOXIDE D]
> 1 µg/mL: P388 | A549 | HT-29

C=C1CCCC(C)(C)C1(O)CC[C@@]1(C)CC[C@@H]([C@H](C)C(=O)OC)OO1 (stereo not given in full) [AIKUPIKOXIDE B]
> 1 µg/mL: P388 | A549 | HT-29

COC(=O)[C@@H](C)[C@@H]1CC[C@](C)(CCC(=O)C(C)(C)CCCC(C)=O)OO1 [DIACARPEROXIDE B]
> 1 µg/mL: P388 | A549 | HT-29

CO[C@@]1(C)CCC(C(C)C)=C[C@@H]2[C@H]1CC[C@]2(C)O
> 1 µg/mL: P388 | A549 | HT-29

CC(=O)CCCC(C)(C)C(=O)CC/C(C)=C/CC[C@@]1(C)CC[C@H]([C@H](C)C(=O)O)OO1 [AIKUPIKOXIDE A]
> 1 µg/mL: P388 | A549 | HT-29
